Experimental data: patent US20110245223A1, “HETEROCYCLIC COMPOUNDS” (Japan Tobacco Inc., priority 2005, published 2011)

Molecular target: T1, human HSD-1 (recombinant HSD-1) (Homo sapiens, UniProt P28845)
T1 construct: made in house
Test: HSD-1 (hydroxysteroid dehydrogenase 1) activity inhibitory action in vitro, SPA, conversion of cortisone to cortisol
Type: biochemical
Conditions: recombinant human HSD-1 expressed using baculovirus system, 10 nM 3H cortisone, 500 μM NADPH, room temperature 90 to 120 min, read-out: hHSD1 (IC50 (nM))

T1 sequence (P28845 whole entry): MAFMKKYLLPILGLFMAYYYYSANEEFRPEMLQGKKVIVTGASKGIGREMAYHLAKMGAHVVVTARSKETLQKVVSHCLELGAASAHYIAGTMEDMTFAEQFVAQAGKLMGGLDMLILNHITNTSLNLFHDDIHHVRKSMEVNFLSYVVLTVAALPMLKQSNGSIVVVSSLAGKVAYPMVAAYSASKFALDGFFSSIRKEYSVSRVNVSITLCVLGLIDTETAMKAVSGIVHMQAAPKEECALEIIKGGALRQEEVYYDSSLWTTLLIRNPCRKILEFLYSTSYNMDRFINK

Molecule O=C(OCCO)N1CCC(n2ncc(C(=O)N3CC[C@@H](c4ccccc4C(F)(F)F)C3)c2C2CC2)CC1 [Example 58, 1-{5-cyclopropyl-1-[1-(2-hydroxyethoxycarbonyl)piperidin-4-yl]-1H-pyrazole-4-carbonyl}-[(S)-3-(2-trifluoromethylphenyl)]pyrrolidine] has an IC50 of less than 30 nM.
